Laboratory results taken from ChEMBL document CHEMBL1153181, “SAR of N-phenyl piperidine based oral integrin alpha5beta1 antagonists” (Bioorg Med Chem Lett, 2010).

Tests used:
Integrin alpha-5/beta-1 [1] = target: T1, Integrin alpha-5/beta-1 (Homo sapiens, UniProt P05556+P08648); experiment: Inhibition of integrin alpha5beta1 receptor-mediated HEK293 cell adhesion; type: cell-based
[2] = target: Integrin alpha-IIb/beta-3 (Homo sapiens, UniProt P05106+P08514); experiment: Inhibition of integrin alpha2bbeta3 receptor by ELISA; type: protein-complex assay
Chain of Integrin alpha-IIb/beta-3 (P05106 27-788 limits assumed): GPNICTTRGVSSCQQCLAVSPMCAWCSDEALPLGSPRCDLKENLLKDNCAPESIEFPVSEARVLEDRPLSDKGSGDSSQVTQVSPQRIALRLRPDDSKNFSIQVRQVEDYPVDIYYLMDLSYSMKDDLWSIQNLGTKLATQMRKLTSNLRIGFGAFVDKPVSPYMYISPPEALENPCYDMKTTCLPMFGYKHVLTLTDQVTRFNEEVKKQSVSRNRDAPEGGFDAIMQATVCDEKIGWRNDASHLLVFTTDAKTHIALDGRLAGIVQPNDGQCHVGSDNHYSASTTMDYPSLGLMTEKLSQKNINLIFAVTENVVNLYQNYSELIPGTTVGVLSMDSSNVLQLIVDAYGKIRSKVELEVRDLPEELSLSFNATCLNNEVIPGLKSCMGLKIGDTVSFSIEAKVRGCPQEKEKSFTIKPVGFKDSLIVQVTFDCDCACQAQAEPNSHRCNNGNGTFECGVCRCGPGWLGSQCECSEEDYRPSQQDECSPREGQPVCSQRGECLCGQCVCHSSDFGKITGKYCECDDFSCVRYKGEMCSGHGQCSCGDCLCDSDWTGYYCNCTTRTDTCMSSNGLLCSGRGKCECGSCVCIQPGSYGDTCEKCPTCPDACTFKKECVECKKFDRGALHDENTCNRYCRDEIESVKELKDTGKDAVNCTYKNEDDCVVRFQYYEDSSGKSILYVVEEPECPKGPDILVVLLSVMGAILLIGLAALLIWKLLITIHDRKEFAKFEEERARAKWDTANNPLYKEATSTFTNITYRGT
Chain of Integrin alpha-IIb/beta-3 (P08514 32-887 limits assumed): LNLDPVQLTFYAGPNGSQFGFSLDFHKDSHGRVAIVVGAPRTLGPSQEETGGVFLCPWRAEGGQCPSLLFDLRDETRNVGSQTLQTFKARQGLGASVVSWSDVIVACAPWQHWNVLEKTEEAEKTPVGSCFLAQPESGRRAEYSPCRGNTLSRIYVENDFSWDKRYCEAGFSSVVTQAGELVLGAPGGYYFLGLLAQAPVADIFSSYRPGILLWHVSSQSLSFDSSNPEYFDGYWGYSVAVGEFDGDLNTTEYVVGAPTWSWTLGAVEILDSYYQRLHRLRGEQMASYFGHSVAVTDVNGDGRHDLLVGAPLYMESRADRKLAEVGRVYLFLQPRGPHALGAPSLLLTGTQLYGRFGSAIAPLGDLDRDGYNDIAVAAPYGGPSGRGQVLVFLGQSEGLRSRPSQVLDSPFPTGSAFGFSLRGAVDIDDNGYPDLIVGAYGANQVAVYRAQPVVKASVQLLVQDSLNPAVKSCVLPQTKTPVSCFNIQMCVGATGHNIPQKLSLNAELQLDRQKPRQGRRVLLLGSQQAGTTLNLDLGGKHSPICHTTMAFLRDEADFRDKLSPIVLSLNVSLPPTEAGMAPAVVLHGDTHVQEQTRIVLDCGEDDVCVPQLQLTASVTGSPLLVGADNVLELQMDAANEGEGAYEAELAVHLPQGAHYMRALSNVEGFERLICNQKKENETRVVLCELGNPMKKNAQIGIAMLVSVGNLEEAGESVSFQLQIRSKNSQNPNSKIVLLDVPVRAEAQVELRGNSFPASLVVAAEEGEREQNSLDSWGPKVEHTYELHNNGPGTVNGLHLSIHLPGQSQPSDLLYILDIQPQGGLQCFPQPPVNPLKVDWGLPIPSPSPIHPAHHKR
Chain of Integrin alpha-IIb/beta-3 (P08514 891-1039 limits assumed): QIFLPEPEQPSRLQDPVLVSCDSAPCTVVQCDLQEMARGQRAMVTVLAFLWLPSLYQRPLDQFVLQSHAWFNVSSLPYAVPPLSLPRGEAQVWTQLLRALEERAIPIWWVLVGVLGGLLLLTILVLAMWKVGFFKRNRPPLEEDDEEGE

Integrin alpha-V/beta-3 = Integrin alpha-V/beta-3 (Homo sapiens, UniProt P05106+P06756); experiment: Inhibition of integrin […] receptor by ELISA; type: protein-complex assay
Chain of Integrin alpha-V/beta-3 (P05106 27-788 limits assumed): as the sequence (P05106 27-788 limits assumed) above
Chain of Integrin alpha-V/beta-3 (P06756 31-889 limits assumed): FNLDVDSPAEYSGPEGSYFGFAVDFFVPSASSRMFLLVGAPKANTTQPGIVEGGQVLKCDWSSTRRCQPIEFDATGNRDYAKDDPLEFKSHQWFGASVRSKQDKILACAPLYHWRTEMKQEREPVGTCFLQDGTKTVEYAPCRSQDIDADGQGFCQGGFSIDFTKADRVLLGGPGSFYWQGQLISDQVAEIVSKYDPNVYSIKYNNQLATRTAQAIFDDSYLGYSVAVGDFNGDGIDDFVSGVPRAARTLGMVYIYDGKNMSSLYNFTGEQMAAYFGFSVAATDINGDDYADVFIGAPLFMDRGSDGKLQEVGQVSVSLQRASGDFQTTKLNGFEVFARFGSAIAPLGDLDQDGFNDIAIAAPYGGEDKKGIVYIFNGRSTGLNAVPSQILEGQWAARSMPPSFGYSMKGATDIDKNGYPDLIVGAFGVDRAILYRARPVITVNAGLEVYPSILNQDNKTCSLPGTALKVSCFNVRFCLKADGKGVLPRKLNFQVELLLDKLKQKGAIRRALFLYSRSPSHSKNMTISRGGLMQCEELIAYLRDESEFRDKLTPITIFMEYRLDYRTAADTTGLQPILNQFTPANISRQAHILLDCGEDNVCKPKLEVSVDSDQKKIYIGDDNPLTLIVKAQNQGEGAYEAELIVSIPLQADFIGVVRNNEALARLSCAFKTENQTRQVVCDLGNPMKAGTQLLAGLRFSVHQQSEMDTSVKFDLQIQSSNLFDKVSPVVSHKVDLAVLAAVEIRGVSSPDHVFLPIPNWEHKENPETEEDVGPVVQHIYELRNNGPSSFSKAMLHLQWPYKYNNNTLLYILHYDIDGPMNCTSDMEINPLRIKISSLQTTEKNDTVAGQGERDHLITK
Chain of Integrin alpha-V/beta-3 (P06756 891-1048 limits assumed): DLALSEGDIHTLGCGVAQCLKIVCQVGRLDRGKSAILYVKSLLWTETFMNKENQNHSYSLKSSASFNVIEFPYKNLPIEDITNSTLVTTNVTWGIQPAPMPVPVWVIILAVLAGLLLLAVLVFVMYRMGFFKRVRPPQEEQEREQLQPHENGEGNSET

Integrin alpha-5/beta-1 [3] = target: T1, Integrin alpha-5/beta-1; experiment: Inhibition of integrin alpha5beta1 receptor by ELISA; type: protein-complex assay
[4] = Metabolic stability in human microsomes assessed as compound remaining at 1 uM after 1 hr; type: ADME, Microsome; settings: read-out: Stability
Integrin alpha-V/beta-5 = Integrin alpha-V/beta-5 (Homo sapiens, UniProt P06756+P18084); experiment: Inhibition of integrin […] receptor by ELISA; type: protein-complex assay
[5] = Elimination half life in Beagle dog at 10 mg/kg, iv administered as bolus dose; type: ADME, organism-based, Canis lupus familiaris; parameters: dose 10 mg/kg, route intravenous; settings: in vivo, read-out: beta t1/2
Canis familiaris = experiment: Hepatic blood flow in Beagle dog at 10 mg/kg, iv administered as bolus dose; type: ADME, organism-based, Canis lupus familiaris, Liver; parameters: dose 10 mg/kg, route intravenous; settings: in vivo
[6] = Systemic clearance in Beagle dog at 10 mg/kg, iv administered as bolus dose; type: ADME, organism-based, Canis lupus familiaris; parameters: dose 10 mg/kg, route intravenous; settings: in vivo
[7] = Oral bioavailability in Beagle dog at 10 mg/kg administered as bolus dose; type: ADME, organism-based, Canis lupus familiaris; settings: in vivo
[8] = Oral bioavailability in rat at 10 mg/kg, po; type: ADME, organism-based; settings: in vivo
[9] = Metabolic stability in rat microsomes assessed as compound remaining at 1 uM after 1 hr; type: ADME, Microsome; settings: read-out: Stability
[10] = Dissociation constant, pKa of the compound; type: physicochemical
[11] = Total body clearance in rat at 1 mg/kg, iv; type: ADME, organism-based; parameters: dose 1 mg/kg, route intravenous; settings: in vivo

T1 sequence (P05556 21-798 limits assumed): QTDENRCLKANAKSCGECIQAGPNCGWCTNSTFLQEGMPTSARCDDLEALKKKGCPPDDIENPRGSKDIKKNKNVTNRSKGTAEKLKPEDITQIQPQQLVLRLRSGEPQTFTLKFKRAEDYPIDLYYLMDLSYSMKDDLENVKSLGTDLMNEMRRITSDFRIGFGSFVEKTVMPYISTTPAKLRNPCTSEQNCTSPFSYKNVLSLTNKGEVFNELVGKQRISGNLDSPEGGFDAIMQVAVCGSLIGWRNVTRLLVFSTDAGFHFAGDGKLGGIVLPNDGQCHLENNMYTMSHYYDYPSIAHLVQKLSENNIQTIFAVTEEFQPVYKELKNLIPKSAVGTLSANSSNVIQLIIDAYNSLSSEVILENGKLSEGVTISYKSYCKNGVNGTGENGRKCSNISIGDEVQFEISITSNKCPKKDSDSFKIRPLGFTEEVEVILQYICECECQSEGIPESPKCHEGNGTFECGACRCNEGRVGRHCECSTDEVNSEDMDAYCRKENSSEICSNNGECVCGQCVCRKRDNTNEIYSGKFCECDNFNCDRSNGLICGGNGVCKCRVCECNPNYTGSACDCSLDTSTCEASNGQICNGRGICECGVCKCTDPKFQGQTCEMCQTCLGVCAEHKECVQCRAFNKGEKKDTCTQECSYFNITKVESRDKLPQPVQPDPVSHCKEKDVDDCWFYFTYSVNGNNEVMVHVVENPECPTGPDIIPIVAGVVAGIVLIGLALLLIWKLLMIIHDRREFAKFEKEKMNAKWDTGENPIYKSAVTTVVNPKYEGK
T1 sequence (P08648 42-894 limits assumed): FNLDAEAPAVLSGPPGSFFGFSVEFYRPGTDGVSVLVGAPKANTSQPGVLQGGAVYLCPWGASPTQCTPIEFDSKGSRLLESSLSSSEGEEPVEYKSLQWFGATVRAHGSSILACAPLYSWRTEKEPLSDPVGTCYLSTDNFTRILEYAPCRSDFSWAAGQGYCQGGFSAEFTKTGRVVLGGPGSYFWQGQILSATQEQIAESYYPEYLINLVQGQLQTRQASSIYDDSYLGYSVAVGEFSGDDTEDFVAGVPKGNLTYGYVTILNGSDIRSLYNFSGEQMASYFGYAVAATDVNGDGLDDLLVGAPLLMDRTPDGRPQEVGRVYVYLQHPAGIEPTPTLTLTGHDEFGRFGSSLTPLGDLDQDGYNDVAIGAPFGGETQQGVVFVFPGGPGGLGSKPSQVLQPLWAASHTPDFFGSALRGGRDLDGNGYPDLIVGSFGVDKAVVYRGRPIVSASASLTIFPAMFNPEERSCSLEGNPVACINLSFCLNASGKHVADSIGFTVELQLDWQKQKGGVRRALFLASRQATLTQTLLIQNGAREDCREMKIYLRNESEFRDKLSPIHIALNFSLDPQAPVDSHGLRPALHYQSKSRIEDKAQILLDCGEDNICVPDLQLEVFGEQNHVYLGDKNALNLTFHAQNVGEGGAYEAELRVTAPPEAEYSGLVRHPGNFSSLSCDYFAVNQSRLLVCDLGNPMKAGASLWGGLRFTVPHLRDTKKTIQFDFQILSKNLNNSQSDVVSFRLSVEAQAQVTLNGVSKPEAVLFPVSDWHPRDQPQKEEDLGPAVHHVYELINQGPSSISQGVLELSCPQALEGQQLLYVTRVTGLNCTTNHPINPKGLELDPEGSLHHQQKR
T1 sequence (P08648 895-1049 limits assumed): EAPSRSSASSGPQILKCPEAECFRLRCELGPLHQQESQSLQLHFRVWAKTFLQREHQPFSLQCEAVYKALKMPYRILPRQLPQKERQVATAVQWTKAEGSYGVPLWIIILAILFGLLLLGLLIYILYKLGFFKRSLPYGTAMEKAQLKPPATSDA

SMILES | IC50 (Integrin alpha-5/beta-1 [1]) | IC50 [2] | IC50 (Integrin alpha-V/beta-3) | IC50 (Integrin alpha-5/beta-1 [3]) | remaining at 1 h, 1 µM [4] | IC50 (Integrin alpha-V/beta-5) | half-life [5] | LBF (Canis familiaris) | clearance [6] | bioavailability [7] | bioavailability [8] | remaining at 1 h, 1 µM [9] | pKa [10] | clearance [11]
CCc1cc(F)cc(C)c1C(=O)NC(Cc1ccc(N2CCC(CNc3ccccn3)CC2)cc1)C(=O)O (stereo not given) | 76 nM | 71700 nM | 1050 nM | 2 nM | 105% | 11700 nM | – | – | – | – | – | – | – | –
CCc1cc(F)cc(C)c1C(=O)N[C@@H](Cc1ccc(N2CCC(CNc3ccccn3)CC2)cc1)C(=O)O | 21 nM | 121000 nM | 614 nM | 0.9 nM | – | 12400 nM | 3.58 h | 37% | 11 mL/min/kg | 11% | – | – | – | –
CCc1cc(F)cc(C)c1C(=O)N[C@H](Cc1ccc(N2CCC(CNc3ccccn3)CC2)cc1)C(=O)O | 6910 nM | 159000 nM | 16600 nM | 351 nM | – | 15600 nM | – | – | – | – | – | – | – | –
COc1ccnc(NCC2CCN(c3ccc(CC(NC(=O)c4c(C)cc(C)cc4C)C(=O)O)cc3)CC2)c1 (stereo not given) | 34 nM | – | 89 nM | 0.92 nM | – | 3540 nM | – | – | – | – | 6% | 62% | 7.7 | 110 mL/min/kg
Cc1cccc(C)c1C(=O)NC(Cc1ccc(N2CCC(CNc3ccccn3)CC2)cc1)C(=O)O (stereo not given) | – | 77700 nM | 239 nM | 1.6 nM | 59% | 1870 nM | – | – | – | – | – | – | – | –
CCc1cccc(C)c1C(=O)NC(Cc1ccc(N2CCC(CNc3ccccn3)CC2)cc1)C(=O)O (stereo not given) | – | 87200 nM | 648 nM | 2.2 nM | 52% | 11500 nM | – | – | – | – | – | – | – | –
Cc1cc(F)cc(C)c1C(=O)NC(Cc1ccc(N2CCC(CNc3ccccn3)CC2)cc1)C(=O)O (stereo not given) | – | 105000 nM | 402 nM | 2.7 nM | 69% | 8290 nM | – | – | – | – | – | – | – | –
O=C(O)[C@H](Cc1ccc(N2CCC(CNc3ccccn3)CC2)cc1)N1Cc2ccccc2C1=O | – | 76700 nM | 13.4 nM | 234 nM | – | 3320 nM | – | – | – | – | – | – | – | –
Cc1cc(C)c(C(=O)NC(Cc2ccc(N3CCC(CNc4ccccn4)CC3)cc2)C(=O)O)c(C)c1 (stereo not given) | 198 nM | 40200 nM | 642 nM | 2.1 nM | – | 15000 nM | – | – | – | – | 24% | 85% | 7 | 16 mL/min/kg
Cc1ccnc(NCC2CCN(c3ccc(CC(NC(=O)c4c(C)cc(C)cc4C)C(=O)O)cc3)CC2)c1 (stereo not given) | 69 nM | 23400 nM | – | – | – | 10700 nM | – | – | – | – | – | 77% | 7.5 | –
O=C(N[C@@H](Cc1ccc(N2CCC(CNc3ccccn3)CC2)cc1)C(=O)O)c1ccccc1 | – | 14800 nM | 4.3 nM | 70 nM | – | 32.1 nM | – | – | – | – | – | – | – | –
